Source: patent US10493074B2, “Specific trifluoroethyl quinoline analogue for use in the treatment of Sjögren's syndrome” (UCB Biopharma SPRL, priority 2015, dated 2019)

What was measured:
[1] = test system: T and B cells in cannulated salivary glands; test: FACS analysis of lymphocyte profile in salivary glands, inducible murine model of ectopic lymphoid tissue formation (Sjögren's syndrome model); format: in vivo, mice (C57BL/6); settings: for number of T and B cells in cannulated salivary glands: day 15 post-cannulation, vs vehicle
Description: N-{(R)-1-[8-Chloro-2-(1-oxypyridin-3-yl)quinolin-3-yl]-2,2,2-trifluoroethyl}-pyrido[3,2-d]pyrimidin-4-ylamine [hereinafter referred to as “Compound (A)”] was investigated in vivo in an inducible model of ectopic lymphoneogenesis in murine salivary glands that mimics Sjögren's syndrome. The results obtained are depicted in the accompanying drawings, in which:
(§1) Compound (A) was assessed in the in vivo murine model of inducible ectopic lymphoid tissue formation described by M. Bombardieri et al. in J. Immunol., 2012, 189, 3767-3776, which is a recognised animal model of Sjögren's syndrome.
(§2) Briefly, wild type (C57BL/6) mice were given replication-defective adenovirus 5 (AdV5) (10^8 p.f.u.) via retrograde cannulation of submandibular gland excretory ducts and sacrificed at specific time points post-cannulation. Compound (A), or vehicle control, was administered by gavage daily both prophylactically and therapeutically, starting at either day 0 or day 3 post-cannulation respectively. In order to assess immune cell status in isolated murine salivary glands, flow cytometry on single cell suspensions and quantitative real time PCR were used to evaluate protein and mRNA expression in the samples.
Replication-defective AdV5-infused salivary glands from mice dosed with either Compound (A) or vehicle were isolated from culled mice at different time points. Glands were dissected and placed in RPMI-1640 (with 2% FCS) (1 mL) on ice. Once all salivary glands were collected, RPMI-1640 was removed and replaced with enzyme mix (RMPI with 2% FCS, 0.8 mg/mL Dispase, 0.2 mg/mL Collagenase P, and 0.1 mg/mL DNase I) (2 mL). Salivary glands were cut into small pieces and tubes were incubated at 37° C. in a water bath, with magnetic stirrers. After 20 minutes, salivary gland fragments were very gently pipetted, using a 1 mL pipette, to disrupt the tissue further and release most cells. The mixture was replaced in the water bath and large fragments were allowed to settle for 30 s, after which time the enzyme mix was removed. […] Cells were filtered through 70 μm nylon mesh and counted using a haemocytometer. […]

[2] = test system: TLO (tertiary lymphoid organ) associated genes; test: Quantitative RT-PCR of TLO associated genes in salivary glands, inducible murine model of ectopic lymphoid tissue formation (Sjögren's syndrome model); format: in vivo, mice (C57BL/6)
Description: Quantitative RT-PCR analysis of mRNA transcripts coding for indicated genes, normalised to housekeeping gene. The relative expression values presented as RQ were calibrated with day 0 post-cannulation salivary gland values.
as §1, §2

For [O-][n+]1cccc(-c2nc3c(Cl)cccc3cc2[C@@H](Nc2ncnc3cccnc23)C(F)(F)F)c1 [Compound (A), N-{(R)-1-[8-Chloro-2-(1-oxypyridin-3-yl)quinolin-3-yl]-2,2,2-trifluoroethyl}-pyrido[3,2-d]pyrimidin-4-ylamine], the “disaggregation of the inflammatory foci and resolution of salivary gland inflammation” value ([1]; dosed either prophylactically or therapeutically, overall conclusion from the model) was “effective”, the “number of T and B cells in cannulated salivary glands” value ([1]; treated prophylactically from day 0, by gavage daily, flow cytometry (FIG. 1)) was “significant decrease” and the “number of T and B cells in cannulated salivary glands” value ([1]; treated therapeutically from day 3 post-cannulation, by gavage daily, flow cytometry (FIG. 2)) was “significant decrease”. The “gene expression profile of TLO associated genes” value ([2]; treated prophylactically from day 0, day 15 post-cannulation, vs vehicle (FIGS. 3 & 4)) was “significantly inhibited” and the “gene expression profile of TLO associated genes” value ([2]; treated therapeutically from day 3 post-cannulation, day 15 post-cannulation, vs vehicle (FIG. 4)) was “decrease was conserved”.
